Laboratory results as given in ChEMBL document CHEMBL4417631, “Oral peptide inhibitors of interleukin-23 receptor and their use to treat inflammatory bowel diseases” (2017).
*1 amine or outer side, *2 acyl side, *3 side chain or, on linkers, in order; H or OH if unused. Where a SMILES comes first, the peptide text is derived from it. Bridges are numbered along the chain shown (N, C = ends). Roman numbers before positions name the chains, in order. [ ]: non-standard residue; d: D form. Abu(4-yl) = O=C([C@H](CC[*:3])N[*:1])[*:2]; 2Nal = N[C@@H](Cc1ccc2ccccc2c1)C(=O)O; Diglycolyl = O=C(COCC(=O)[*:2])[*:1]; AEF = NCCOc1ccc(C[C@H](N)C(=O)O)cc1; Pen = CC(C)(S)[C@H](N)C(=O)O; Aib = CC(C)(N)C(=O)O

Legend:
[1] = molecular target: T1, Interleukin-23 receptor (Homo sapiens, UniProt Q5VWK5); assay: Inhibition of interleukin-23 binding to human interleukin-23 receptor incubated for 2 hrs by competitive binding ELISA
T1 sequence (Q5VWK5 whole entry): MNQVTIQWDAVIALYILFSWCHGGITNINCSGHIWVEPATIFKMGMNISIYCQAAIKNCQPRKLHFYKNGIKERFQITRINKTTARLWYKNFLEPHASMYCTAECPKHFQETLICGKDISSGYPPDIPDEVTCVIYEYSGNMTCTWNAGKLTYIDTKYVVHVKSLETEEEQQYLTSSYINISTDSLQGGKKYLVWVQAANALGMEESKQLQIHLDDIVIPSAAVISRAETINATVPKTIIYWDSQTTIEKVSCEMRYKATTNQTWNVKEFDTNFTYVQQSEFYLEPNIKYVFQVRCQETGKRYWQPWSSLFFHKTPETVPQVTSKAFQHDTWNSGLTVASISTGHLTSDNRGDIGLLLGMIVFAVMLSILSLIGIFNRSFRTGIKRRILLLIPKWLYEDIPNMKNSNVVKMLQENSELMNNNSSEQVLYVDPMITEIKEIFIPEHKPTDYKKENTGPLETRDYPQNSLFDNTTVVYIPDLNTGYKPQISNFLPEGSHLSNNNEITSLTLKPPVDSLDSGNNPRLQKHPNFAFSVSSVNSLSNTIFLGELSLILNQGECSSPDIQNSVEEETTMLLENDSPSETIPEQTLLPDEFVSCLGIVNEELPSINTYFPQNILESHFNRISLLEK

[2] = molecular target: T1, Interleukin-23 receptor; assay: Inhibition of interleukin-23 receptor in human DB cells assessed as reduction in IL-23-stimulated STAT3 phosphorylation incubated for 30 mins by HTRF assay; format: cell-based

Compound	IC50 [1] [nM]	IC50 [2] [nM]
CC(=O)N[C@@H](CS)C(=O)N[C@@H](C)C(=O)N[C@@H](CC(=O)O)C(=O)N[C@@H](Cc1c[nH]c2ccccc12)C(=O)N[C@H](C(=O)N[C@@H](CS)C(=O)N[C@@H](Cc1ccc(O)cc1)C(=O)N[C@@H](Cc1c[nH]c2ccccc12)C(=O)N[C@H](Cc1cnc[nH]1)C(=O)N[C@H](C(=O)N[C@@H](Cc1ccccc1)C(=O)NCC(=O)NCCOCC(=O)N[C@H](CCCCN)C(N)=O)[C@@H](C)O)C(C)C	100 to 1000	100 to 1000
CC(=O)N[C@H](C(=O)N[C@@H](CCC(N)=O)C(=O)N[C@H](C(=O)N[C@@H](Cc1c[nH]c2ccccc12)C(=O)N[C@@H](CCC(N)=O)C(=O)N[C@H](C(=O)N[C@@H](Cc1ccc(OCCN)cc1)C(=O)N[C@@H](Cc1ccc2ccccc2c1)C(=O)N[C@@](C)(CCCCN)C(=O)N[C@@H](CCC(=O)O)C(=O)N[C@@H](CC(N)=O)C(=O)NCC(N)=O)C(C)(C)S)[C@@H](C)O)C(C)(C)S	10 to 25	< 10
CC(=O)N[C@H]1CCSC[C@@H](C(=O)N[C@@H](Cc2ccc(OCCNC(=O)COCC(=O)NCCOc3ccc(C[C@H](NC(=O)[C@@H]4CSCC[C@H](NC(C)=O)C(=O)N[C@@H](CCC(N)=O)C(=O)N[C@@H]([C@@H](C)O)C(=O)N[C@@H](Cc5c[nH]c6ccccc56)C(=O)N[C@@H](CCC(N)=O)C(=O)N4)C(=O)N[C@@H](Cc4ccc5ccccc5c4)C(=O)NC(C)(C)C(=O)N[C@@H](CCC(N)=O)C(=O)N[C@@H](CC(N)=O)C(=O)NCC(N)=O)cc3)cc2)C(=O)N[C@@H](Cc2ccc3ccccc3c2)C(=O)NC(C)(C)C(=O)N[C@@H](CCC(N)=O)C(=O)N[C@@H](CC(N)=O)C(=O)NCC(N)=O)NC(=O)[C@H](CCC(N)=O)NC(=O)[C@H](Cc2c[nH]c3ccccc23)NC(=O)[C@H]([C@@H](C)O)NC(=O)[C@H](CCC(N)=O)NC1=O (I: Ac-[Abu(4-yl)]QTWQC[AEF][2Nal][Aib]QNG-NH2 / II: Ac-[Abu(4-yl)]QTWQC[AEF][2Nal][Aib]QNG-NH2; thioether I:1-I:6, II:1-II:6; linker I:7-II:7 via Diglycolyl)	25 to 100	10 to 25
CC(=O)N[C@H](C(=O)N[C@@H](CC(N)=O)C(=O)N[C@H](C(=O)N[C@@H](Cc1c[nH]c2ccccc12)C(=O)N[C@@H](CCC(N)=O)C(=O)N[C@H](C(=O)N[C@@H](Cc1ccc(OCCN)cc1)C(=O)N[C@@H](Cc1ccc2ccccc2c1)C(=O)N[C@@](C)(CCCCN)C(=O)N[C@@H](CCC(=O)O)C(=O)N[C@@H](CC(N)=O)C(=O)NCC(N)=O)C(C)(C)S)[C@@H](C)O)C(C)(C)S	< 10	< 10
CC(=O)N[C@H](C(=O)N[C@H](C(=O)N[C@H](C(=O)N[C@@H](Cc1c[nH]c2ccccc12)C(=O)N[C@@H](CCC(N)=O)C(=O)N[C@H](C(=O)N[C@@H](Cc1ccc(OCCN)cc1)C(=O)N[C@@H](Cc1ccc2ccccc2c1)C(=O)N[C@@](C)(CCCCN)C(=O)N[C@@H](CCC(=O)O)C(=O)N[C@@H](CC(N)=O)C(=O)NCC(N)=O)C(C)(C)S)[C@@H](C)O)[C@@H](C)O)C(C)(C)S	10 to 25	< 10
CC(=O)N[C@@H](CS)C(=O)N[C@H](C(=O)N[C@@H](CC(=O)O)C(=O)N[C@@H](Cc1c[nH]c2ccccc12)C(=O)N[C@@H](CCCCN)C(=O)N[C@@H](CS)C(=O)N[C@@H](Cc1ccc(O)cc1)C(=O)N[C@@H](Cc1c[nH]c2ccccc12)C(=O)N[C@@H](Cc1cnc[nH]1)C(=O)N[C@H](C(=O)N[C@@H](Cc1ccccc1)C(=O)NCC(N)=O)[C@@H](C)O)[C@@H](C)O	100 to 1000	100 to 1000
COc1ccc(C[C@H](NC(=O)[C@@H](NC(=O)[C@H](CCC(N)=O)NC(=O)[C@H](Cc2c[nH]c3ccccc23)NC(=O)[C@@H](NC(=O)[C@H](CCC(N)=O)NC(=O)[C@@H](NC(C)=O)C(C)(C)S)[C@@H](C)O)C(C)(C)S)C(=O)N[C@@H](Cc2ccc3ccccc3c2)C(=O)NC(C)(C)C(=O)N[C@@H](CCCCNC(C)=O)C(=O)N[C@@H](CC(N)=O)C(=O)NCCC(N)=O)cc1	–	< 10
CC(=O)N[C@H](C(=O)N[C@@H](CO)C(=O)N[C@H](C(=O)N[C@@H](Cc1c[nH]c2ccccc12)C(=O)N[C@@H](CCC(N)=O)C(=O)N[C@H](C(=O)N[C@@H](Cc1ccc(OCCN)cc1)C(=O)N[C@@H](Cc1ccc2ccccc2c1)C(=O)N[C@@](C)(CCCCN)C(=O)N[C@@H](CCC(=O)O)C(=O)N[C@@H](CC(N)=O)C(=O)NCC(N)=O)C(C)(C)S)[C@@H](C)O)C(C)(C)S	10 to 25	< 10
CC(=O)NCCCC[C@H](NC(=O)[C@](C)(CCCCN)NC(=O)[C@H](Cc1c[nH]c2ccccc12)NC(=O)[C@H](Cc1ccc(OCCN)cc1)NC(=O)[C@@H]1CSCC[C@H](NC(C)=O)C(=O)N[C@@H](CCC(N)=O)C(=O)N[C@@H]([C@@H](C)O)C(=O)N[C@@H](Cc2c[nH]c3ccccc23)C(=O)N[C@@H](CCC(N)=O)C(=O)N1)C(=O)NC1CNC(=O)CNC1=O (stereo partly specified)	25 to 100	< 10
CC(=O)N[C@@H](CS)C(=O)N[C@@H](CCC(N)=O)C(=O)N[C@H](C(=O)N[C@@H](Cc1c[nH]c2ccccc12)C(=O)N[C@@H](CCC(N)=O)C(=O)N[C@@H](CS)C(=O)N[C@@H](Cc1ccc(O)cc1)C(=O)N[C@@H](Cc1c[nH]c2ccccc12)C(=O)N[C@@H](CCC(C)C)C(=O)N[C@@H](CCC(=O)O)C(=O)N[C@@H](CC(N)=O)C(=O)NCC(=O)N[C@@H](CCCNC(=N)N)C(N)=O)[C@@H](C)O	> 10000	> 1000
COc1ccc(C[C@H](NC(=O)[C@@H](NC(=O)[C@H](CCC(N)=O)NC(=O)[C@H](Cc2c[nH]c3ccccc23)NC(=O)[C@@H](NC(=O)[C@H](CC(N)=O)NC(=O)[C@@H](NC(C)=O)C(C)(C)S)[C@@H](C)O)C(C)(C)S)C(=O)N[C@@H](Cc2ccc3ccccc3c2)C(=O)NC(C)(C)C(=O)N[C@@H](CCCCNC(C)=O)C(=O)N[C@@H](CC(N)=O)C(=O)N[C@@H](C)C(N)=O)cc1	–	< 10
CC(=O)NCCCC[C@H](NC(=O)C(C)(C)NC(=O)[C@H](Cc1ccc2ccccc2c1)NC(=O)[C@H](Cc1ccc(OCCN)cc1)NC(=O)[C@@H](NC(=O)[C@H](CCC(N)=O)NC(=O)[C@H](Cc1c[nH]c2ccccc12)NC(=O)[C@@H](NC(=O)[C@H](CCC(N)=O)NC(=O)[C@@H](NC(C)=O)C(C)(C)S)[C@@H](C)O)C(C)(C)S)C(=O)N[C@@H](CC(N)=O)C(=O)N[C@@H](C)C(N)=O	–	< 10
CC(=O)N[C@H](C(=O)NCC(=O)N[C@H](C(=O)N[C@@H](Cc1c[nH]c2ccccc12)C(=O)N[C@@H](CCC(N)=O)C(=O)N[C@H](C(=O)N[C@@H](Cc1ccc(OCCN)cc1)C(=O)N[C@@H](Cc1ccc2ccccc2c1)C(=O)N[C@@](C)(CCCCN)C(=O)N[C@@H](CCC(=O)O)C(=O)N[C@@H](CC(N)=O)C(=O)NCC(N)=O)C(C)(C)S)[C@@H](C)O)C(C)(C)S	10 to 25	< 10
CC(=O)N[C@@H](CS)C(=O)N[C@@H](C)C(=O)N[C@@H](CC(=O)O)C(=O)N[C@@H](Cc1c[nH]c2ccccc12)C(=O)N[C@H](C(=O)N[C@@H](CS)C(=O)N[C@@H](Cc1ccc(O)cc1)C(=O)N[C@@H](Cc1c[nH]c2ccccc12)C(=O)N[C@@H](Cc1cnc[nH]1)C(=O)N[C@H](C(=O)N[C@@H](Cc1ccccc1)C(=O)NCC(=O)N[C@H](CCCCN)C(=O)O)[C@@H](C)O)C(C)C	100 to 1000	100 to 1000
CC(=O)N[C@H]1CCSC[C@@H](C(=O)N[C@@H](Cc2ccc(F)c(F)c2)C(=O)N[C@@H](Cc2ccc3ccccc3c2)C(=O)NC(C)(C)C(=O)N[C@@H](CCC(=O)O)C(=O)N[C@@H](CC(N)=O)C(=O)NCC(N)=O)NC(=O)[C@H](CCC(N)=O)NC(=O)[C@H](Cc2c[nH]c3ccccc23)NC(=O)[C@H]([C@@H](C)O)NC(=O)[C@H](CCC(N)=O)NC1=O	25 to 100	10 to 25
CC(=O)NCCCC[C@H](NC(=O)C(C)(C)NC(=O)[C@H](Cc1ccc2ccccc2c1)NC(=O)[C@H](Cc1ccc(OCCN)cc1)NC(=O)[C@@H](NC(=O)[C@H](CCC(N)=O)NC(=O)[C@H](Cc1c[nH]c2ccccc12)NC(=O)[C@@H](NC(=O)[C@H](CCC(N)=O)NC(=O)[C@@H](NC(=O)[C@@H](CCCNC(=N)N)NC(C)=O)C(C)(C)S)[C@@H](C)O)C(C)(C)S)C(=O)N[C@@H](CC(N)=O)C(=O)N[C@@H](CC(N)=O)C(N)=O	–	< 10
CC(=O)NCCCC[C@H](NC(=O)C(C)(C)NC(=O)[C@H](Cc1ccc2ccccc2c1)NC(=O)[C@H](Cc1ccc(OCCN)cc1)NC(=O)[C@@H](NC(=O)[C@H](CCC(N)=O)NC(=O)[C@H](Cc1c[nH]c2ccccc12)NC(=O)[C@@H](NC(=O)[C@H](CCC(N)=O)NC(=O)[C@@H](NC(=O)[C@H](CCC(=O)O)NC(C)=O)C(C)(C)S)[C@@H](C)O)C(C)(C)S)C(=O)N[C@@H](CC(N)=O)C(=O)N[C@@H](CC(N)=O)C(N)=O (Ac-E[Pen]QTWQ[Pen][AEF][2Nal][Aib]K(Ac)NN-NH2)	–	< 10
COc1ccc(C[C@H](NC(=O)[C@@H](NC(=O)[C@H](CCC(N)=O)NC(=O)[C@H](Cc2c[nH]c3ccccc23)NC(=O)[C@@H](NC(=O)[C@H](CCC(N)=O)NC(=O)[C@@H](NC(C)=O)C(C)(C)S)[C@@H](C)O)C(C)(C)S)C(=O)N[C@@H](Cc2ccc3ccccc3c2)C(=O)N[C@@](C)(CCCN)C(=O)N[C@@H](CCCCNC(C)=O)C(=O)N[C@@H](CC(N)=O)C(=O)NCC(N)=O)cc1	100 to 1000	25 to 100
